The structures appear in SMILES notation.

One assay has as its system β-Glucocerebrosidase. The assay can be described thus: β-Glucocerebrosidase activity in epidermis of treated fetal rat skin explants. The following applies: clofibrate (300 μM), juvenile hormone III (100 μ), mean of five ± SEM. The class given is cell-based, rats. On the procedure:
(§1) Epidermis was separated from dermis after incubation in 10 mM ethylenediamine tetraacetic acid (EDTA) in Ca^++- and Mg^++-free phosphate-buffered saline (PBS), pH 7.4, at 37° C. for 30-40 minutes. The tissues were then minced, and homogenized on ice (three times at 15 seconds each with a Polytron homogenizer, followed by sonication twice at ten seconds each at 35% power) in either PBS containing 0.1 mM phenylmethylsulfonyl fluoride (PMSF) and 0.1% Triton X-100 (for β-glucocerebrosidase) or in 10 mM Tris (PH 7.5) containing 0.15 M sucrose and 2 mM EDTA (for steroid sulfatase). β-Glucocerebrosidase activity was measured in the supernatant following centrifugation at 10,000×g for fifteen minutes at 4° C. Steroid sulfatase activity was measured in the microsomal fraction resulting from a […] centrifugation (10 minutes, 4° C.) followed by 60 minutes of 100,000×g ultracentrifugation at 4° C. Protein content was measured by conventional techniques.
β-Glucocerebrosidase) activity was assayed using the synthetic substrate 4-methylumbelliferyl β-D-glucoside (4-MUG). The assays were performed in 5 mM sodium taurocholate in citrate-phosphate buffer (pH 5.6) with 0.5 mM 4-MUG for sixty minutes at 37° C., with a final assay volume of 100 μL, and protein concentration of 1-2 mg/mL. The reaction was terminated with 2 mL of carbonate-bicarbonate buffer (pH 10.5). The fluorescence was then measured at […] (excitation) and 450 λ (emission) and compared with a standard 4-methylumbelliferone (4-MU) curve.
(§2) Skin explants from 17-day fetal rats were incubated for 24 or 48 hours in media individually containing clofibrate (300 μM) and juvenile hormone III […], and control media. Enzyme activity was measured and the results are presented in Table I as the mean values of five determinations±SEM (standard error of the mean). All p values are ≦0.005 compared with controls of the same time period.

The subject of assay [1] is Preconfluent keratinocytes. The assay can be described thus: Keratinocyte growth: DNA content (bis-benzimidazole fluorimetry). Type of assay: cell-based, human. The note with it: mean of three samples. The protocol: Preconfluent keratinocytes were treated for 48 hours with varying concentrations of clofibrate ranging from 0 (vehicle only) to 400 μM, in both low (0.03 mM) calcium and high (1.2 mM) calcium. The treated keratinocytes were harvested and sonicated, and the resulting homogenates were incubated with 1 μL/mL bis-benzimidazole for two hours in the dark. DNA content was quantified by reading the samples on a spectrofluorimeter. Each value in the table is a mean of three samples.

The test system of another assay is Steroid Sulfatase. Nature of the assay: Steroid sulfatase activity in epidermis of treated fetal rat skin explants. Type of assay: cell-based, rats. The note with it: clofibrate (300 μM), juvenile hormone III (100 μ), mean of five ± SEM. The protocol:
as §1
Steroid sulfatase activity was measured by incubating 100 μg of microsomal protein in 0.1 M Tris containing 5.6 mM glucose (pH 7.4) with 15 μM, (^3H) dihydroepiandrosterone sulfate (DHEAS) (15 μCi) in a final volume of 1.1 mL The product, (^3H) DHEA, was extracted with benzene and an aliquot counted by scintillation spectrophotometry.
as §2

Assay [2] concerns Skin explants from gestational day 17 rats. The assay can be described thus: Light and electron microscopy of fetal rat skin explants (epidermal maturation). Type of assay: cell-based. The following applies: 300 μM, 48 hours. The protocol:
Samples for light microscopy were fixed in modified Karnovsky's solution, plastic-embedded, and 0.5 μm sections were stained with toluidine. Samples for electron microscopy were minced into 1 mm^3 pieces, fixed in modified Karnovsky's fixative, and processed. Sections were stained with uranyl acetate and lead citrate, post-fixed in ruthenium tetroxide, and examined using a Zeiss 10A electron microscope.
Explants incubated in various media woe examined by light microscopy. The incubation di included control medium (containing no activators) and various media individually containing 300 μM clofibrate, 100 μM juvenile hormone III, 300 μM oleic acid, 30 μM linoleic acid, 50 μM farnesol, and various concentrations of 9-cis-retinoic acid, all-trans-retinoic acid, and 1,25-dihydroxy vitamin D3.
Observations were then made of the ultrastructural maturation of the outer epidermis in explants that had been incubated in the various media and then post-fixed in ruthenium tetroxide. Media identical to those of the preceding paragraph were used, excluding the retinoic acid-containing and 1,25-dihydroxy vitamin D3-containing media.

The test system of the next assay is keratinocytes. Nature of the assay: Rate of DNA synthesis (3H-thymidine incorporation) in keratinocytes. Type of assay: cell-based, Human. The following applies: 10 μM, 24 hours, low calcium (0.03 mM); 16-hour 3H-thymidine period. On the procedure:
The rate of DNA synthesis was determined by measuring the incorporation of ^3H-thymidine into cellular DNA after 16 hours of incubation with 2 μCi^3H-thymidine per mL of media (110 Ci/mmol methyl-1′,2′-^3H-thymidine (Amersham Laboratories, Arlington Heights, Ill. USA). The cells were then solubilized in 1N NaOH, and the radioactivity in the washed TCA precipitate was quantitated by scintillation spectroscopy.
Using the procedures set forth in the Materials and Methods section above, 25-hydroxycholesterol (10 μM) and 22(R)-hydroxycholesterol (10 μM, were compared with cholesterol (10 μM) and the vehicle alone control), with treatment for 24 hours under low calcium (0.03 mM) condition. The results are shown in the bar graph of FIG. 19.
(In general: Incorporation of labelled thymidine or its analogues reports DNA synthesis.)

For the next assay, the system named is transglutaminase protein. Nature of the assay: Transglutaminase protein level in keratinocytes by Western blotting. Type of assay: cell-based, Human. The note with it: low calcium (0.03 mM), 24 hours. On the procedure:
Protein concentration was assessed by protein electrophoresis and Western blotting. Cells were lysed is 2% SDS and the lysate sonicated. Protein determinations were made by use of a Bicinchoninic add protein assay (Pierce Chemical Company, Rockford, Ill. USA). Following protein determination, equal amounts at protein (50 μg) were separated by electrophoresis an 7.5% polyacrylamide gels and electroblotted onto polyvinylidene […] membranes (0.2-μ, obtained from Bio-Rad Laboratories Hercules, Calif., USA). Involucrin protein was detected by incubation over-night at 4° C. C. with a polyclonal rabbit anti-human involucrin antibody (1:1000 dilution). The involucrin-specific bands on the autoradiograms were quantitated by densitometry by densitometry. Transglutaminase protein expression was measured in a similar […], using stacking, sample and running buffers containing 4 M urea, and the gels following electrophoresis were washed in 4 M urea, 25 mM TRIS-HCl, pH 7.4, 7.5 mM NaCl, 0.1 mM dithiothreitol (DTT), and 2 mM ethylenediamine tetraacetic acid for 90 minutes prior to electoblotting, allowing the transglutaminase to be detected by antibody. Specific bands on the autoradiograms were quantified by densitometry. Levels of involucrin and transglutaminase protein were measured in keratinocytes incubated in low calcium (0.03 mM) and treated with the test compounds for 24 hours. The are shown in the bar graph of FIG. 17a, where the test compounds are compared with the vehicle alone (control) and cholesterol, using the same bar indications as in FIGS 14 through 16. […] Cholesterol had no effect.
A general note: Immunoblotting shows a protein as a band on a membrane.

For `CCOC(=O)C(C)(C)Oc1ccc(Cl)cc1` [clofibrate, 2-(4-chlorophenoxy)-2-methylpropanoic acid ethyl ester], the “β-Glucocerebrosidase Activity” value was found to be 2.97 ± 0.30 nmol/min/mg in the assay with β-Glucocerebrosidase (24-Hour Incubation) and 5.35 ± 0.89 nmol/min/mg in the assay with β-Glucocerebrosidase (48-Hour Incubation). For the same molecule, the “DNA Content After 48 Hours” value worked out at 14.9 ± 1.5 μg/dish in assay [1] (Clofibrate 50 μM), 12.9 ± 1.1 μg/dish in assay [1] (Clofibrate 200 μM) and 11.0 ± 1.3 μg/dish in assay [1] (Clofibrate 400 μM). Besides, the “Steroid Sulfatase Activity” value is 13.90 ± 1.10 pmol/h/mg in the assay with Steroid Sulfatase (24-Hour Incubation) and 22.51 ± 2.60 pmol/h/mg in the assay on Steroid Sulfatase (48-Hour Incubation). Moreover, the “light microscopy of the epidermis” value in assay [2] was “had both a multi-layered stratum granulosum and a stratum corneum”.

Consider `C[C@H](CCCC(C)(C)O)[C@H]1CC[C@H]2[C@@H]3CC=C4C[C@@H](O)CC[C@]4(C)[C@H]3CC[C@]12C` [25-hydroxycholesterol], for which the “rate of DNA synthesis” value in the assay on keratinocytes is 50 % of control. For the same molecule, in the assay on transglutaminase protein, the “TG'ase protein level relative to the control” value was “approximately 1.6 fold”.
